# Values of other authors, collected in patent publication US6582919B2, “Method of determining epidermal growth factor receptor and HER2-neu gene expression and correlation of levels thereof with survival rates” (Response Genetics, Inc., priority 2001, dated 2003).
# Legend:
# [1] = test system: EGFR expressing human mammary carcinoma cells; conditions: cells injected into athymic nude mice (Toi et al. 1990)
# [2] = test system: tumors not expressing EGFR; conditions: Toi et al. 1990
compound,measurement,setting,value
O=CN/C=C/c1cc(O)ccc1O [erbstatin],growth of EGFR expressing human mammary carcinoma cells,[1],reduced the growth
same,growth of tumors not expressing EGFR,[2],no effect
